≈ marks a conversion by molar mass, not a printed value.

Broadly, the MIC is the lowest concentration that inhibits growth of the organism. A high value points to weaker potency.

Format in all cases: functional
Test [1] relates to Proteus vulgaris. Briefly: Antibacterial activity against Proteus vulgaris NCIM-2027 after 24 hrs by broth dilution method. The conditions noted are these: NCIM-2027, 24 h. In general terms: Dilution methods test growth across graded concentrations, often in twofold steps.
Test [2] relates to Pseudomonas aeruginosa. Briefly: Antibacterial activity against Pseudomonas aeruginosa NCIM-2036 after 24 hrs by broth dilution method. The conditions noted are these: NCIM-2036, 24 h.
For test [3], the system named is Staphylococcus aureus. Briefly: Antibacterial activity against Staphylococcus aureus NCIM-2079 after 24 hrs by broth dilution method. The conditions noted are these: NCIM-2079, 24 h.
For test [4], the system named is Bacillus subtilis. The experiment in a line: Antibacterial activity against Bacillus subtilis NCIM-2063 after 24 hrs by broth dilution method. The conditions noted are these: NCIM-2063, 24 h.
Test [5] relates to Staphylococcus aureus. Briefly: Antibiofilm activity against Staphylococcus aureus NCIM-2079 after 16 hrs.
Test [6] concerns Escherichia coli. Briefly: Antibacterial activity against Escherichia coli NCIM-2065 after 24 hrs by broth dilution method. The conditions noted are these: NCIM-2065, 24 h.
Test [7] has as its system Bacillus cereus. Briefly: Antibacterial activity against Bacillus cereus NCIM-2156 after 24 hrs by broth dilution method. The conditions noted are these: NCIM-2156, 24 h.

Turning to `O=[N+]([O-])c1cccc(Nc2nc(NC(=S)N3N=C(c4ccccc4)CC3c3ccccc3[N+](=O)[O-])nc(Nc3cccc([N+](=O)[O-])c3)n2)c1` (configuration not stated), the MIC in test [1] was 62.5 µg/mL (≈ 92.2 µM); in test [2], 125 µg/mL (≈ 184 µM); in test [3] it was 15.6 µg/mL (≈ 23 µM); in test [4] it was 62.5 µg/mL (≈ 92.2 µM); in test [6], 125 µg/mL (≈ 184 µM); in test [7], 62.5 µg/mL (≈ 92.2 µM). In test [5], this compound showed an Activity of 125 µg/mL.

`CN[C@H](CC(C)C)C(=O)N[C@H]1C(=O)N[C@@H](CC(N)=O)C(=O)N[C@H]2C(=O)N[C@H]3C(=O)N[C@H](C(=O)N[C@H](C(=O)O)c4cc(O)cc(O)c4-c4cc3ccc4O)[C@H](O)c3ccc(c(Cl)c3)Oc3cc2cc(c3O[C@@H]2O[C@H](CO)[C@@H](O)[C@H](O)[C@H]2O[C@H]2C[C@](C)(N)[C@H](O)[C@H](C)O2)Oc2ccc(cc2Cl)[C@H]1O` [VANCOMYCIN] registered an Activity in test [5] of 3.91 µg/mL.

`O=[N+]([O-])c1cccc(Nc2nc(NC(=S)N3N=C(c4ccccc4)CC3c3ccccc3Cl)nc(Nc3cccc([N+](=O)[O-])c3)n2)c1` (configuration not stated): the MIC was 31.2 µg/mL (≈ 46.8 µM) in test [1]; 15.6 µg/mL (≈ 23.4 µM) in test [2]; 15.6 µg/mL (≈ 23.4 µM) in test [3]; 15.6 µg/mL (≈ 23.4 µM) in test [4]; 15.6 µg/mL (≈ 23.4 µM) in test [6]; 15.6 µg/mL (≈ 23.4 µM) in test [7]. Also, the Activity in test [5] came to 62.5 µg/mL.

For `O=[N+]([O-])c1ccccc1C1CC(c2ccccc2)=NN1C(=S)Nc1nc(Nc2ccc(Cl)cc2)nc(Nc2ccc(Cl)cc2)n1` (configuration not stated), the MIC worked out at 62.5 µg/mL (≈ 95.2 µM) in test [1]; 125 µg/mL (≈ 190 µM) in test [2]; 62.5 µg/mL (≈ 95.2 µM) in test [3]; 15.6 µg/mL (≈ 23.8 µM) in test [4]; 125 µg/mL (≈ 190 µM) in test [6]; 31.2 µg/mL (≈ 47.6 µM) in test [7]. Besides, the Activity in test [5] turned out to be 125 µg/mL.

On to `Fc1ccc(Nc2nc(NC(=S)N3N=C(c4ccccc4)CC3c3ccccc3Cl)nc(Nc3ccc(F)cc3)n2)cc1` (configuration not stated), for which the MIC in test [1] was 7.81 µg/mL (≈ 12.7 µM); in test [2], 15.6 µg/mL (≈ 25.5 µM); in test [3], 15.6 µg/mL (≈ 25.5 µM); in test [4] it was 7.81 µg/mL (≈ 12.7 µM); in test [6] it was 15.6 µg/mL (≈ 25.5 µM); in test [7], 15.6 µg/mL (≈ 25.5 µM). In test [5], this compound had an Activity of 62.5 µg/mL.

As for `Fc1ccc(Nc2nc(NC(=S)N3N=C(c4ccccc4)CC3c3ccccc3)nc(Nc3ccc(F)cc3)n2)cc1` (configuration not stated), the MIC in test [1] is 15.6 µg/mL (≈ 27 µM); in test [2], 15.6 µg/mL (≈ 27 µM); in test [3], 7.81 µg/mL (≈ 13.5 µM); in test [4] it was 7.81 µg/mL (≈ 13.5 µM); in test [6] it was 15.6 µg/mL (≈ 27 µM); in test [7] it was 3.91 µg/mL (≈ 6.76 µM). This compound also had an Activity in test [5] of 15.62 µg/mL.

Regarding `O=[N+]([O-])c1cccc(Nc2nc(NC(=S)N3N=C(c4ccccc4)CC3c3ccccc3)nc(Nc3cccc([N+](=O)[O-])c3)n2)c1` (configuration not stated), the MIC in test [1] was 7.81 µg/mL (≈ 12.3 µM); in test [2], 7.81 µg/mL (≈ 12.3 µM); in test [3] it was 7.81 µg/mL (≈ 12.3 µM); in test [4] it was 15.6 µg/mL (≈ 24.7 µM); in test [6], 7.81 µg/mL (≈ 12.3 µM); in test [7] it was 7.81 µg/mL (≈ 12.3 µM). This compound displayed an Activity in test [5] of 31.25 µg/mL.

As for `S=C(Nc1nc(Nc2ccc(Cl)cc2)nc(Nc2ccc(Cl)cc2)n1)N1N=C(c2ccccc2)CC1c1ccccc1` (configuration not stated), the MIC in test [1] was determined as 15.6 µg/mL (≈ 25.5 µM); in test [2], 31.2 µg/mL (≈ 51.1 µM); in test [3] it was 15.6 µg/mL (≈ 25.5 µM); in test [4], 7.81 µg/mL (≈ 12.8 µM); in test [6] it was 31.2 µg/mL (≈ 51.1 µM); in test [7] it was 31.2 µg/mL (≈ 51.1 µM). In test [5], this compound returned an Activity of 31.25 µg/mL.

As to `Fc1ccc(Nc2nc(NC(=S)N3N=C(c4ccccc4)CC3c3ccc(Cl)cc3)nc(Nc3ccc(F)cc3)n2)cc1` (configuration not stated), the MIC in test [1] was 15.6 µg/mL (≈ 25.5 µM); in test [2] it was 7.81 µg/mL (≈ 12.7 µM); in test [3] it was 31.2 µg/mL (≈ 51 µM); in test [4] it was 3.91 µg/mL (≈ 6.38 µM); in test [6], 7.81 µg/mL (≈ 12.7 µM); in test [7] it was 7.81 µg/mL (≈ 12.7 µM). For the same compound, in test [5], the Activity was determined as 31.25 µg/mL.

In the case of `O=[N+]([O-])c1cccc(Nc2nc(NC(=S)N3N=C(c4ccccc4)CC3c3ccc(Cl)cc3)nc(Nc3cccc([N+](=O)[O-])c3)n2)c1` (configuration not stated), the MIC in test [1] turned out to be 15.6 µg/mL (≈ 23.4 µM); in test [2], 31.2 µg/mL (≈ 46.8 µM); in test [3], 15.6 µg/mL (≈ 23.4 µM); in test [4] it was 7.81 µg/mL (≈ 11.7 µM); in test [6], 31.2 µg/mL (≈ 46.8 µM); in test [7] it was 7.81 µg/mL (≈ 11.7 µM). In addition, the Activity in test [5] was 15.62 µg/mL.

Regarding `O=[N+]([O-])c1ccccc1C1CC(c2ccccc2)=NN1C(=S)Nc1nc(Nc2ccc(F)cc2)nc(Nc2ccc(F)cc2)n1` (configuration not stated), the MIC in test [1] turned out to be 31.2 µg/mL (≈ 50.1 µM); in test [2], 31.2 µg/mL (≈ 50.1 µM); in test [3], 31.2 µg/mL (≈ 50.1 µM); in test [4], 31.2 µg/mL (≈ 50.1 µM); in test [6] it was 31.2 µg/mL (≈ 50.1 µM); in test [7], 62.5 µg/mL (≈ 100 µM). For the same compound, in test [5], the Activity was 31.25 µg/mL.

For `O=[N+]([O-])c1ccc(C2CC(c3ccccc3)=NN2C(=S)Nc2nc(Nc3ccc(Cl)cc3)nc(Nc3ccc(Cl)cc3)n2)cc1` (configuration not stated), the MIC in test [1] was found to be 62.5 µg/mL (≈ 95.2 µM); in test [2], 62.5 µg/mL (≈ 95.2 µM); in test [3], 125 µg/mL (≈ 190 µM); in test [4] it was 31.2 µg/mL (≈ 47.6 µM); in test [6] it was 62.5 µg/mL (≈ 95.2 µM); in test [7] it was 125 µg/mL (≈ 190 µM). The compound also returned an Activity in test [5] of 125 µg/mL.

For the compound `S=C(Nc1nc(Nc2ccc(Cl)cc2)nc(Nc2ccc(Cl)cc2)n1)N1N=C(c2ccccc2)CC1c1ccccc1Cl` (configuration not stated), the MIC came out at 15.6 µg/mL (≈ 24.2 µM) in test [1]; 15.6 µg/mL (≈ 24.2 µM) in test [2]; 15.6 µg/mL (≈ 24.2 µM) in test [3]; 3.91 µg/mL (≈ 6.05 µM) in test [4]; 15.6 µg/mL (≈ 24.2 µM) in test [6]; 62.5 µg/mL (≈ 96.7 µM) in test [7]. This compound also yielded an Activity in test [5] of 31.25 µg/mL.

For the compound `S=C(Nc1nc(Nc2ccc(Cl)cc2)nc(Nc2ccc(Cl)cc2)n1)N1N=C(c2ccccc2)CC1c1ccc(Cl)cc1` (configuration not stated), the MIC in test [1] turned out to be 15.6 µg/mL (≈ 24.2 µM); in test [2] it was 7.81 µg/mL (≈ 12.1 µM); in test [3] it was 15.6 µg/mL (≈ 24.2 µM); in test [4], 3.91 µg/mL (≈ 6.05 µM); in test [6], 7.81 µg/mL (≈ 12.1 µM); in test [7], 15.6 µg/mL (≈ 24.2 µM). In test [5], the Activity was found to be 62.5 µg/mL.

As to `C=CC1=C(C(=O)O)N2C(=O)[C@@H](NC(=O)/C(=N\OCC(=O)O)c3csc(N)n3)[C@H]2SC1` [CEFIXIME], the MIC in test [1] is 7.81 µg/mL (≈ 17.2 µM); in test [2] it was 3.91 µg/mL (≈ 8.62 µM); in test [3] it was 7.81 µg/mL (≈ 17.2 µM); in test [4], 1.95 µg/mL (≈ 4.3 µM); in test [6] it was 3.91 µg/mL (≈ 8.62 µM); in test [7], 3.91 µg/mL (≈ 8.62 µM).

On to `O=[N+]([O-])c1ccc(C2CC(c3ccccc3)=NN2C(=S)Nc2nc(Nc3cccc([N+](=O)[O-])c3)nc(Nc3cccc([N+](=O)[O-])c3)n2)cc1` (configuration not stated), for which the MIC in test [1] amounted to 62.5 µg/mL (≈ 92.2 µM); in test [2], 62.5 µg/mL (≈ 92.2 µM); in test [3], 31.2 µg/mL (≈ 46.1 µM); in test [4], 31.2 µg/mL (≈ 46.1 µM); in test [6] it was 62.5 µg/mL (≈ 92.2 µM); in test [7], 125 µg/mL (≈ 184 µM). Also, the Activity in test [5] came out at 62.5 µg/mL.

In the case of `O=[N+]([O-])c1ccc(C2CC(c3ccccc3)=NN2C(=S)Nc2nc(Nc3ccc(F)cc3)nc(Nc3ccc(F)cc3)n2)cc1` (configuration not stated), the MIC in test [1] came to 62.5 µg/mL (≈ 100 µM); in test [2] it was 31.2 µg/mL (≈ 50.1 µM); in test [3], 31.2 µg/mL (≈ 50.1 µM); in test [4], 15.6 µg/mL (≈ 25 µM); in test [6], 31.2 µg/mL (≈ 50.1 µM); in test [7], 31.2 µg/mL (≈ 50.1 µM). In test [5], the Activity is 62.5 µg/mL.

The record behind these values is ChEMBL document CHEMBL3352800, “Structure-guided discovery of 1,3,5-triazine-pyrazole conjugates as antibacterial and antibiofilm agent against pathogens causing human diseases with favorable metabolic fate” (2014).
